Source: patent US6596687B1, “Cell adhesion inhibitors” (Biogen, Inc., priority 1995, dated 2003)
Numbered stars: 1 amine (or outer) side, 2 acyl side, 3 side chain; on linkers, the order of the positions; unused ones are H or OH. Square brackets hold non-standard residues; d marks the D form. Peptide text beside a SMILES is read from it. * marks the point of attachment. X3 = COc1cc(CC(=O)[*:2])ccc1N[*:1]; Boc = CC(C)(C)OC(=O)*; CO = O=C([*:1])[*:2]; NHBn = c1ccc(CN*)cc1; NHPh = c1ccc(N*)cc1

target: T1, VLA4 (Homo sapiens, UniProt P05556+P13612); test: Inhibition of VLA4-dependent adhesion of Ramos cells to BSA-CS1; format: cell-based; details: Ramos cells, BSA-CS1 coated wells, 2 mM MnCl2, 30 minutes at room temperature; read-out: IC50
T1 construct: endogenous in cells; host or cells: Ramos cells
Text: For example, the cell adhesion inhibitory activity of these compounds may be measured by determining the concentration of inhibitor required to block the binding of VLA-4-expressing cells to fibronectin- or CS1-coated plates. In this assay microtiter wells are coated with either fibronectin (containing the CS1-sequence) or CS-1. If CS-1 is used, it must be conjugated to a carrier protein, such as bovine serum albumin, in order to bind to the wells. Once the wells are coated, varying concentrations of the test compound are then added together with appropriately labelled, VLA-4-expressing cells. Alternatively, the test compound may be added first and allowed to incubate with the coated wells prior to the addition of the cells. The cells are allowed to incubate in the wells for at least 30 minutes. Following incubation, the wells are emptied and washed. Inhibition of binding is measured by quantitating the fluorescence or radioactivity bound to the plate for each of the various concentrations of test compound, as well as for controls containing no test compound.
VLA-4-expressing cells that may be utilized in this assay include Ramos cells, Jurkat cells, A375 melanoma cells, as well as human peripheral blood lymophocytes (PBLs). The cells used in this assay may be fluorescently or radioactively labelled.
This assay was used to assess the potency of VLA4-directed inhibitory compounds of this invention. 1.
We dissolved BSA-SMCC (Pierce Chemical, Rockford, Ill.; Catalog #77115) in H2O at a concentration of 10 mg/mL. [SEQ ID NO:4]: […](“Cys-Tyr-CS1 peptide”), which we synthesized by conventional solid phase chemistry and purified by HPLC, was dissolved in 10 mM HEPES pH 5, 50 mM NaCl and 0.1 mM EDTA also at a concentration of 10 mg/mL. We then mixed 500 μL of BSA-SMCC, 250 μL of Cys-Tyr-CS1 peptide and 75 μL of 1 mM HEPES pH 7.5 and allowed the conjugation reaction to proceed for 30 minutes. We stopped the reaction by adding 1 μL of beta-mercaptoethanol. Samples were analyzed for cross-linking by SDS-PAGE.
We coated the wells of a Linbro titertek polystyrene 96-well flat bottom plate (Flow Laboratories, Maclean, Va.; catalog #76-231-05) with 100 μL of the above-described BSA-CS1 solution diluted to 1 μg/mL in 0.05 M NaHCO3 (15 mM NaHCO3, 35 mM Na2CO3) pH 9.2. Some wells were not coated with CS1 in order to assess non-specific cell binding (NSB). The plate was then incubated overnight at 4° C.
Following this incubation, the contents of the wells were removed by inverting and blotting the plate. All of the wells were then blocked with 100 μL of 1% BSA in PBS, 0.02% NaN3, for a minimum of one hour at room temperature.
Ramos cells are grown, maintained and labelled in RPMI 1640 culture medium containing 1% BSA. Just prior to running the assay, we added 2′, 7′-bis-(2-carboxyethyl)-5(and -6)carboxyfluorescein acetoxymethyl ester (“BCECF-AM”; Molecular Probes Inc., Eugene, Oregon; catalog #B-1150) to a final concentration of 2 μM to a culture of Ramos cells (4×10^6 cells/mL). We incubated the cells for 20 minutes at 37° C.
Following labelling, the cells were washed twice in assay buffer (24 mM TRIS, 137 mM NaCl, 2.7 mM KCl, pH 7.4, containing 0.1 BSA and 2mM glucose) to remove any cations originating from the culture medium. The cells were then resuspended in assay buffer to 4×10^6 cells/mL and 2 mM MnCl2 was added to upregulate VLA4 on the surface of the cells.
Immediately prior to running the assay, we removed the BSA blocking solution from the 96-well plates and washed the wells with 100 μL of assay buffer. We then added to each well 25 μL of test cell adhesion inhibitory compound at 2×the final concentration and 25 μL of the labelled Ramos cells. […] Each concentration of compound was tested in triplicate. The compound and cells are allowed to incubate for 30 minutes at room temperature.

T1 sequence (P13612 34-1032): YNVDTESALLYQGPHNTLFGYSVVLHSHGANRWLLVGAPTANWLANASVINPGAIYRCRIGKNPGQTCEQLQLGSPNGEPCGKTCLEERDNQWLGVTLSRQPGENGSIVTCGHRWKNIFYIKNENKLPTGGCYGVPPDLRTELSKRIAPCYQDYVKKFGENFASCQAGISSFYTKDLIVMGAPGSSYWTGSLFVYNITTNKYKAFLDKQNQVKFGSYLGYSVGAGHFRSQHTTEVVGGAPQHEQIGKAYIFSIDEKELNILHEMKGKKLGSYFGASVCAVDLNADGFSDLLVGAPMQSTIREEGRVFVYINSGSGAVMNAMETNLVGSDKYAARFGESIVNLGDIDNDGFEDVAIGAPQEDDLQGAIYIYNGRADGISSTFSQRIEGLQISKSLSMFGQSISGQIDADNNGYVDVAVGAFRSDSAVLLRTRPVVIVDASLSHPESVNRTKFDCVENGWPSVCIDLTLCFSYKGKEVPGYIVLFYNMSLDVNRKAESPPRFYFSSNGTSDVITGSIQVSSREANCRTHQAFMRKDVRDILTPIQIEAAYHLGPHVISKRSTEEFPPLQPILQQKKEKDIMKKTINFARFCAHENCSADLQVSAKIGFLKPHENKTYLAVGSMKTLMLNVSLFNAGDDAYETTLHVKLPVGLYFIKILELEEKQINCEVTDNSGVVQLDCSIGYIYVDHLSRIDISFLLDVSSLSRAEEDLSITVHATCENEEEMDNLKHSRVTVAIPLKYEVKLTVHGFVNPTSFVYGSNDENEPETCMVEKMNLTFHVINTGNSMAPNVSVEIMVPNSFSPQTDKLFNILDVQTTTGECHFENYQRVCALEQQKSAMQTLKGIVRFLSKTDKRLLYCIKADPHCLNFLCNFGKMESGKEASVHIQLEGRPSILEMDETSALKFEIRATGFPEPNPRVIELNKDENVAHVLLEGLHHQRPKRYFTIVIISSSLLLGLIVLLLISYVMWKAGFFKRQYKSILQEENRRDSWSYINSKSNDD
T1 sequence (P05556 21-798): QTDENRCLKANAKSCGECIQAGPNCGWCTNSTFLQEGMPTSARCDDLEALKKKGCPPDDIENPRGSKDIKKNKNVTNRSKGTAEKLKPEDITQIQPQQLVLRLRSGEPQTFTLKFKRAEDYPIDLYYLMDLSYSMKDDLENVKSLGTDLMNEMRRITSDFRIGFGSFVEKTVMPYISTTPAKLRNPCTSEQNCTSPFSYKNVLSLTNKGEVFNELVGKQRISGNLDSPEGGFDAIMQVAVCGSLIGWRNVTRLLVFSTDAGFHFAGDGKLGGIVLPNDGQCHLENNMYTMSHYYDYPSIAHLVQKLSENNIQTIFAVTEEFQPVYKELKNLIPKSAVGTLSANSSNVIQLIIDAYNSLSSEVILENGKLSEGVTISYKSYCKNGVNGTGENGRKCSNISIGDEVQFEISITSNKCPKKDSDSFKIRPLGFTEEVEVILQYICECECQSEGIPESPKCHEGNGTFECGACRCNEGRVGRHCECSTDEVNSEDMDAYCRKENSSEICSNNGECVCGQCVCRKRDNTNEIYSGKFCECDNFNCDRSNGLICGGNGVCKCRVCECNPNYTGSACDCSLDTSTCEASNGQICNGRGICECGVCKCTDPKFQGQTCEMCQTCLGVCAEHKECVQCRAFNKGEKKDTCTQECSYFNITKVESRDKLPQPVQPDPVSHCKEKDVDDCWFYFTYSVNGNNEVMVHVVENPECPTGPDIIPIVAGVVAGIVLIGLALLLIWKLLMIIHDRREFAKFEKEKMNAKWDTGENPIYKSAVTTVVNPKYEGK

`COc1cc(CC(=O)N[C@@H](CC(C)C)C(=O)N[C@@H](CC(=O)O)C(=O)N[C@H](C(=O)N2CCC[C@H]2C(=O)O)C(C)C)ccc1NC(=O)Nc1ccccc1` [Compound 1] ({NHPh-CO}-[X3]LDVP-OH) and `COc1cc(CC(=O)N[C@@H](CCSC)C(=O)N[C@@H](CC(=O)O)C(=O)N[C@H](C(=O)N2CCC[C@H]2C(=O)O)C(C)C)ccc1NC(=O)Nc1ccccc1` [Compound 2] ({NHPh-CO}-[X3]MDVP-OH) cannot be ordered by IC50: under 0.05 µM for the first, under 0.05 µM for the second.

Compared with `COc1nc(CC(=O)N[C@@H](CC(C)C)C(=O)N[C@@H](CC(=O)O)C(=O)N[C@H](C(N)=O)C(C)C)ccc1NC(=O)Nc1ccccc1C` [Compound 3], `CNC(=O)[C@@H](NC(=O)[C@H](CC(=O)O)NC(=O)[C@H](CC(C)C)NC(=O)Nc1ccc(C)cc1)C(C)C` [Compound 48] is higher in IC50: under 0.05 µM for the first, over 10 µM for the second. The first is the more potent here.

`CC(C)C[C@H](NC(=O)c1cc2ccccc2cn1)C(=O)N[C@@H](CCC(=O)O)C(=O)N[C@H](C(=O)O)C(C)C` [Compound 5] and `CC(C)C[C@H](NC(=O)c1cc2ccccc2cn1)C(=O)N[C@@H](CO)C(=O)N[C@H](C(=O)O)C(C)C` [Compound 7] cannot be ordered by IC50: over 10 µM for the first, over 10 µM for the second.

`CC(C)C[C@H](NC(=O)c1cc2ccccc2cn1)C(=O)N[C@@H](CS)C(=O)N[C@H](C(=O)O)C(C)C` [Compound 9] and `CC(C)C[C@H](NC(=O)c1cc2ccccc2cn1)C(=O)N[C@@H](CC(=O)O)C(=O)O` [Compound 12] cannot be ordered by IC50: over 10 µM for the first, over 10 µM for the second.

`CC(C)CNC(=O)[C@@H](CC(=O)O)NC(=O)[C@H](CC(C)C)NC(=O)CCc1ccc(O)cc1` [Compound 15] and `CCC(C)C(NC(=O)CCc1ccc(O)cc1)C(=O)NC(CC(=O)O)C(=O)NCC(C)C` (stereo not drawn) [Compound 17] cannot be ordered by IC50: over 10 µM for the first, over 10 µM for the second.

First: COC(=O)[C@@H](NC(=O)[C@H](CC(=O)O)NC(=O)[C@H](CC(C)C)N(C)C(=O)CCc1ccc(O)cc1)C(C)C [Compound 18]
Second: CNC(=O)[C@@H](NC(=O)[C@H](CC(=O)O)NC(=O)[C@H](CC(C)C)N(C)C(=O)CCc1ccc(O)cc1)C(C)C [Compound 46]
The IC50 of the first is lower: 0.05 to 10 µM for the first, over 10 µM for the second.

`COC(=O)[C@@H](NC(=O)[C@H](CC(=O)O)NC(=O)[C@H](CC(C)C)NC(=O)CCc1ccc(O)cc1)C(C)C` [Compound 19] and `COC(=O)[C@H](C(C)C)N(C)C(=O)[C@H](CC(=O)O)NC(=O)[C@H](CC(C)C)NC(=O)CCc1ccc(O)cc1` [Compound 20] cannot be ordered by IC50: over 10 µM for the first, over 10 µM for the second.

`COC(=O)[C@@H](NC(=O)[C@H](CC(=O)O)N(C)C(=O)[C@H](CC(C)C)NC(=O)CCc1ccc(O)cc1)C(C)C` [Compound 22] and `COC(=O)[C@@H](NC(=O)[C@H](CC(=O)O)NC(=O)[C@H](CC(C)C)N(CCc1ccccc1)C(C)=O)C(C)C` [Compound 29] cannot be ordered by IC50: over 10 µM for the first, over 10 µM for the second.

`CC(C)C[C@H](NC(=O)C1Cc2ccccc2CN1)C(=O)N[C@@H](CC(=O)O)C(=O)O` (stereo partly drawn) [Compound 23] (HELM PEPTIDE1{[O=C(C1Cc2ccccc2CN1)[*:2]].L.D}$$$$V2.0) and `CC(C)C[C@H](NC(=O)C1Cc2ccccc2CN1)C(=O)N[C@@H](CCC(=O)O)C(=O)N[C@H](C(=O)O)C(C)C` (stereo partly drawn) [Compound 31] (HELM PEPTIDE1{[O=C(C1Cc2ccccc2CN1)[*:2]].L.E.V}$$$$V2.0) cannot be ordered by IC50: over 10 µM for the first, over 10 µM for the second.

`COC(=O)[C@@H](NC(=O)[C@H](CC(=O)O)NC(=O)[C@H](CC(C)C)N(Cc1ccccc1)C(C)=O)C(C)C` [Compound 28] and `COC(=O)[C@@H](NC(=O)[C@H](CC(=O)O)NC(=O)[C@H](CC(C)C)N(CCc1ccccc1)C(=O)CCc1ccccc1)C(C)C` [Compound 30] cannot be ordered by IC50: over 10 µM for the first, over 10 µM for the second.

First: CC(C)C[C@H](NC(=O)c1cc2ccccc2cn1)C(=O)N[C@@H](CC(=O)O)C(=O)N[C@H](C(=O)N1CCC[C@H]1C(=O)O)C(C)C [Compound 32]
Second: CC(C)C[C@H](NC(=O)Cc1ccccc1)C(=O)N[C@@H](CC(=O)O)C(=O)N[C@H](C(=O)N1CCC[C@H]1C(=O)O)C(C)C [Compound 34]
The IC50 of the first is higher: over 10 µM for the first, 0.05 to 10 µM for the second. The second is the more potent here.

First: COC(=O)[C@@H]1CCCN1C(=O)[C@@H](NC(=O)[C@H](CC(=O)O)NC(=O)[C@H](CC(C)C)NC(=O)Cc1ccccc1)C(C)C [Compound 35]
Second: COC(=O)[C@@H]1CCCN1C(=O)[C@@H](NC(=O)[C@H](CC(=O)O)NC(=O)[C@H](CC(C)C)NC(=O)CCc1ccccc1)C(C)C [Compound 37]
The IC50 of the first is lower: 0.05 to 10 µM for the first, over 10 µM for the second. The first is the more potent here.

First: CC(C)C[C@H](NC(=O)CCc1ccccc1)C(=O)N[C@@H](CC(=O)O)C(=O)N[C@H](C(=O)N1CCC[C@H]1C(=O)O)C(C)C [Compound 36]
Second: CC(C)CC(NC(=O)Cc1ccccc1)C(=O)NC(CC(=O)O)C(=O)NC(C(=O)N1CCCCC1C(=O)O)C(C)C (stereo not drawn) [Compound 42]
The IC50 of the first is higher: over 10 µM for the first, 0.05 to 10 µM for the second. The second is the more potent here.

`CC(C)C[C@H](NC(=O)CCc1ccc(O)cc1)C(=O)N[C@@H](CC(=O)O)C(=O)N[C@H](C(=O)N1CCC[C@H]1C(=O)O)C(C)C` [Compound 38] and `CC(C)C[C@H](NC(=O)CCc1ccccc1)C(=O)N[C@@H](CC(=O)O)C(=O)N[C@H](C(=O)O)C(C)C` [Compound 64] (HELM PEPTIDE1{[O=C(CCc1ccccc1)[*:2]].L.D.V}$$$$V2.0) cannot be ordered by IC50: over 10 µM for the first, over 10 µM for the second.

`COC(=O)[C@@H]1CCCN1C(=O)[C@@H](NC(=O)[C@H](CC(=O)O)NC(=O)[C@H](CC(C)C)NC(=O)OC(C)(C)C)C(C)C` [Compound 40] and `CC(C)C[C@H](NC(=O)OC(C)(C)C)C(=O)N[C@@H](CC(=O)O)C(=O)N[C@H](C(=O)NC(C)(C)C)[C@@H](C)O` [Compound 62] (HELM PEPTIDE1{[CC(C)(C)OC(=O)[*:2]].L.D.T.[CC(C)(C)N[*:1]]}$$$$V2.0) cannot be ordered by IC50: over 10 µM for the first, over 10 µM for the second.

`COC(=O)[C@@H]1CCCN1C(=O)[C@@H](NC(=O)[C@H](CC(=O)O)NC(=O)[C@H](CC(C)C)NC(=O)c1ccc2ccccc2n1)C(C)C` [Compound 41] and `CNC(=O)[C@@H](NC(=O)[C@H](CC(=O)O)NC(=O)[C@H](CC(C)C)NC(=O)c1ccc2ccccc2n1)[C@@H](C)OC` [Compound 59] fall in the same range of IC50: 0.05 to 10 µM for the first, 0.05 to 10 µM for the second.

`CNC(=O)[C@@H](NC(=O)[C@H](CC(=O)O)NC(=O)[C@H](CC(C)C)N(C)C(=O)Cc1ccc(OC)cc1)C(C)C` [Compound 45] and `CNC(=O)[C@@H](NC(=O)[C@H](CC(=O)O)NC(=O)[C@H](CC(C)C)NC(=O)NCc1ccccc1)C(C)C` [Compound 47] ({NHBn-CO}-Leu-Asp-Val-NHMe) cannot be ordered by IC50: over 10 µM for the first, over 10 µM for the second.

Compared with `CC(C)C[C@H](NC(=O)c1ccc2ccccc2n1)C(=O)N[C@@H](CC(=O)O)C(=O)N[C@H](C(=O)NC(C)(C)C)[C@@H](C)O` [Compound 60], `CC(C)C[C@H](NC(=O)c1ccc2ccccc2n1)C(=O)N[C@@H](CC(=O)O)C(=O)N[C@H](C(=O)N1CCOCC1)[C@@H](C)O` [Compound 61] is lower in IC50: over 10 µM for the first, 0.05 to 10 µM for the second. The second is the more potent here.

`CC(C)C[C@H](NC(=O)C1(NC(=O)OC(C)(C)C)CCc2ccccc2C1)C(=O)N[C@@H](CC(=O)O)C(=O)N[C@H](C(=O)O)C(C)C` (stereo partly drawn) [Compound 63] (HELM PEPTIDE1{[CC(C)(C)OC(=O)[*:2]].[O=C(C1(N[*:1])CCc2ccccc2C1)[*:2]].L.D.V}$$$$V2.0) and `CC(C)CC(NC(=O)C(Cc1ccc(O)cc1)NC(=O)OC(C)(C)C)C(=O)NC(CC(=O)O)C(=O)NC(C(=O)O)C(C)C` (stereo not drawn) [Compound 66] (Boc-YLDV-OH; configuration not given here) cannot be ordered by IC50: over 10 µM for the first, over 10 µM for the second.

`CC(C)C[C@H](NC(=O)C(Cc1ccc(O)cc1)N(S(C)(=O)=O)S(C)(=O)=O)C(=O)N[C@@H](CC(=O)O)C(=O)N[C@H](C(=O)O)C(C)C` (stereo partly drawn) [Compound 65] showed an IC50 of over 10 µM.
